Some results are limits rather than exact numbers.

The target of assay [1] is T1, human A3 AR (Homo sapiens, UniProt P0DMS8).
T1 sequence (P0DMS8 1-318): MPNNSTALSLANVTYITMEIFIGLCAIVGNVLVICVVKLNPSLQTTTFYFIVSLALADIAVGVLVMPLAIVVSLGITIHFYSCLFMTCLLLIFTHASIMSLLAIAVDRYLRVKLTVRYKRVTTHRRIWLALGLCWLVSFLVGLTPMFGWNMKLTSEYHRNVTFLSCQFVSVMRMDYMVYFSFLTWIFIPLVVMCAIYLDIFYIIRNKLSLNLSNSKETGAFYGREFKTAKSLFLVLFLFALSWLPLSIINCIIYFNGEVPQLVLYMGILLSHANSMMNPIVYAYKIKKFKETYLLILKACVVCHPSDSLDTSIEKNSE
Kind of assay: cell-based. The settings on record: CHO, read-out: Ca2+ Emax.

For assay [2], the target named is T1, human A3 AR. The assay can be described thus: cell-based. The following applies: CHO, read-out: β-arrestin2 Emax.
In assay [3] the target is T1, human A3 AR. The assay can be described thus: Membrane hyperpolarization. The settings on record: for Emax: CHO, read-out: hyperpolarization Emax; for agonist activity in membrane hyperpolarization assay, in words: agonist alone.
Assay [4] deals with T1, human A3 AR. Kind of assay: Cyclic AMP accumulation assay.
The target in assay [5] is T1, human A3 AR. The settings on record: no agonist.
Assay [6] has as its target T1, human A3 AR. The following applies: LUF6000 10 μM.
In assay [7] the target is T1, human A3 AR. The settings on record: agonist Cl-IB-MECA; LUF6000 1, 3, and 10 μM.
The test system of the next assay is other subtypes of ARs. The settings on record: concentrations up to 10 μM; cited from earlier work.

Regarding `CNC(=O)[C@H]1O[C@@H](n2cnc3c(NCc4cccc(I)c4)nc(Cl)nc32)[C@H](O)[C@@H]1O` [Cl-IB-MECA, 2-chloro-N^6-(3-iodobenzyl)adenosine-5′-N-methyluronamide], the Emax stood at 55.2 ± 3.4% on human A3 AR [1]; 104 ± 5% on human A3 AR [2]; 58.3 ± 3.6% at human A3 AR [3]; 95.8 ± 4.8% on human A3 AR [4] (CHO, read-out: cyclic AMP Emax).
As for `Clc1ccc(Nc2nc3ccccc3c3[nH]c(C4CCC4)nc23)cc1Cl` [LUF5999, N-(3,4-dichloro-phenyl)-2-cyclobutyl-1H-imidazo[4,5-c]quinolin-4-amine], the “effect on agonist action (efficacy and potency), in words” value at human A3 AR [4] (agonist Cl-IB-MECA) is on record as “concentration-dependently increasing efficacy while decreasing potency”.
Consider `Clc1ccc(Nc2nc3ccccc3c3[nH]c(C4CCCCC4)nc23)cc1Cl` [LUF6000, N-(3,4-dichloro-phenyl)-2-cyclohexyl-1H-imidazo[4,5-c]quinolin-4-amine], for which, at human A3 AR [5], the “effect of modulator alone on intracellular calcium mobilization” value is given as “had no effect”. Besides, the “enhancement of the effect of Cl-IB-MECA” value at human A3 AR [6] (agonist Cl-IB-MECA) was “less than 10%”. In addition, on human A3 AR [6] (agonist NECA), the “enhancement of the effect of NECA” value is on record as “less than 10%”. For the same molecule, at human A3 AR [6] (partial agonist MRS542), the “enhancement of the efficacy of MRS542” value was “about 40%”. For the same molecule, the “effect on the efficacy of Cl-IB-MECA in inducing ERK1/2 activation” value on human A3 AR [7] was “had no effect”. The “binding at the other subtypes of ARs” value with other subtypes of ARs is “did not bind appreciably”. Besides, the “further increase of the efficacy of Cl-IB-MECA at higher concentration” value on human A3 AR [3] (agonist Cl-IB-MECA, LUF6000 30 μM) is “did not induce a further increase”. Further, the “effect on the efficacy of adenosine” value on human A3 AR [3] (agonist adenosine, data not shown) is “did not show any effect”. For the same molecule, the “enhancement of the residual activity of inosine, MRS541 and LUF5833” value at human A3 AR [3] (ligands inosine, MRS541, LUF5833) was “did not show any enhancement”. For the same molecule, the “effect of modulator alone on membrane hyperpolarization” value on human A3 AR [3] (no agonist) is “did not show any effect”. Moreover, on human A3 AR [4] (agonist Cl-IB-MECA), the “concentration at which the efficacy-enhancing effect reaches a maximum” value was “approx. 10 μM” and the “concentration from which the efficacy-enhancing effect starts” value was not above 1 µM. For the same molecule, the “relative enhancement of the efficacy of Cl-IB-MECA” value on human A3 AR [4] (agonist Cl-IB-MECA, LUF6000 10 μM) amounted to 50%. In addition, on human A3 AR [4] (agonist Cl-IB-MECA, LUF6000 30 μM, data not shown), the “further enhancement at higher concentration” value was “did not cause further enhancement”. Also, on human A3 AR [4] (agonist Cl-IB-MECA, modulator 10 μM or lower), the “effect on agonist potency” value is “did not significantly affect”. Besides, the “maximum enhancement of the efficacy of NECA” value on human A3 AR [4] (agonist NECA, LUF6000 10 μM) is “about 16%”. Moreover, the “efficacy of inosine in presence of LUF6000, % of the level of NECA” value at human A3 AR [4] (agonist inosine, LUF6000 10 μM) is reported as 85%. The “effect on the inability of MRS1220 and MRS1191 to inhibit forskolin-stimulated cyclic AMP levels” value at human A3 AR [4] (nonnucleoside A3 AR antagonists MRS1220 and MRS1191, data not shown) is on record as “did not show any effect”. Moreover, the “effect on the efficacy of CCPA” value at human A3 AR [4] (nucleoside antagonist CCPA) is given as “no effect”. The “effect on the efficacy of MRS542” value on human A3 AR [4] (nucleoside antagonist MRS542) is “no effect”. In addition, on human A3 AR [4] (partial agonist LUF5833, LUF6000 10 μM), the “efficacy of LUF5833, % of the control level (agonist alone)” value is given as “over 200%”. Besides, the “efficacy of MRS541, % of the control level (agonist alone)” value at human A3 AR [4] (partial agonist MRS541, LUF6000 10 μM) is “over 200%”.
With `Clc1ccc(Nc2nc3ccccc3c3[nH]cnc23)cc1Cl` [LUF6001, N-(3,4-dichloro-phenyl)-1H-imidazo[4,5-c]quinolin-4-amine], the “effect on agonist action (efficacy and potency), in words” value at human A3 AR [4] (agonist Cl-IB-MECA) was “slightly decreased both the efficacy and potency”.
For the molecule `OC[C@H]1O[C@@H](n2cnc3c(NCc4cccc(I)c4)ncnc32)[C@H](O)[C@@H]1O` [MRS541, N^6-(3-iodobenzyl)adenosine], the “agonist activity in membrane hyperpolarization assay, in words” value (from here on “agonist activity”) on human A3 AR [3] is on record as “did not show any significant activation”.
Consider `OC[C@H]1O[C@@H](n2cnc3c(NCc4cccc(I)c4)nc(Cl)nc32)[C@H](O)[C@@H]1O` [MRS542, 2-chloro-N^6-(3-iodobenzyl)adenosine], for which the Emax on human A3 AR [1] was 7.5 ± 2.5%; on human A3 AR [2], 41.1 ± 3.2%; on human A3 AR [3], -3.8 ± 5.6%. Also, the “agonist activity” value on human A3 AR [3] is listed as “did not show any agonist activity”.
With `Nc1ncnc2c1ncn2[C@@H]1O[C@H](CO)[C@@H](O)[C@H]1O` [adenosine], the “agonist activity” value on human A3 AR [3] was “equally efficacious as NECA”.
The same measure, in the same setting: the same measure for `O=c1[nH]cnc2c1ncn2[C@@H]1O[C@H](CO)[C@@H](O)[C@H]1O` [inosine]: “did not show any significant activation”.
